We go through four compounds from patent publication US20240158348A1, “HERBICIDAL CYCLIC AMIDES N-SUBSTITUTED WITH A HALOALKYLSULFONYLANILIDE GROUP” (FMC Corporation, priority 2021, published 2024).

Each structure is given as a SMILES string.

What all share (format): in vivo
Assay [1] concerns goosegrass (Eleusine indica). As to the kind of experiment: Test C postemergence, goosegrass. To be noted: for Goosegrass plant response rating: visual injury, 0 to 100 scale (0 no effect, 100 complete control); for Plant response rating (0 to 100 scale), Goosegrass: 0 is no effect, 100 is complete control. In short, it runs like this: (§1)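 Herbicidal effect was estimated visually on a 0–100 scale 10 or 12 days after spraying. Formulation: non-phytotoxic solvent mixture with surfactant. Timing: directed soil spray after sowing, or postemergence on seedlings bearing one or two leaves.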

In another assay the test system is soybean (Glycine max). Briefly: Test C preemergence, soybean. To be noted: 0 is no effect, 100 is complete control. An outline of the steps:
as §1

Assay [2] relates to ducksalad (Heteranthera limosa). Briefly: Test D flooded paddy test, ducksalad. More on the design: key: 0 = no effect, 100 = complete control. To be noted: 250 g ai/ha, Flood; applied to paddy water at 2-leaf stage; visual rating after 13 days; scale 0 (no effect) to 100 (complete control). An outline of the steps:
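Pots holding 2-leaf-stage plants were flooded 3 cm deep and dosed via the water, which stayed at that level. After 13 greenhouse days, injury was scored visually against untreated controls, 0 (none) to 100 (complete control); a dash marks no test result.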

In assay [3] the test system is horseweed (Erigeron canadensis). As to the kind of experiment: Test C postemergence, horseweed. The following applies: for Horseweed plant response rating: visual injury, 0 to 100 scale (0 no effect, 100 complete control); for Plant response rating (0 to 100 scale), Horseweed: 0 is no effect, 100 is complete control. An outline of the steps: as §1
In assay [4] the test system is pigweed, palmer (palmer amaranth, Amaranthus palmeri). As to the kind of experiment: Test C preemergence, palmer amaranth. To be noted: 0 is no effect, 100 is complete control. In short, it runs like this:
as §1

The subject of assay [5] is oat, wild (wild oat, Avena fatua). As to the kind of experiment: Test C preemergence, wild oat. The following applies: 0 is no effect, 100 is complete control. An outline of the steps:
as §1

For assay [6], the system named is blackgrass (Alopecurus myosuroides). Briefly: Test C preemergence, blackgrass. The following applies: 0 is no effect, 100 is complete control. In short, it runs like this: as §1
Assay [7] has as its system ragweed (common ragweed, Ambrosia artemisiifolia). Briefly: Test C preemergence, ragweed. The following applies: 0 is no effect, 100 is complete control. An outline of the steps: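 Greenhouse pot test. Compounds in a non-phytotoxic solvent with surfactant were applied to a loam–sand soil mix either preemergence as a directed spray or postemergence to plants at the one- to two-leaf stage; 0–100 visual ratings followed after 10 or 12 days.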

In another assay the test system is corn (Zea mays). Briefly: Test C postemergence, corn. The following applies: for Corn plant response rating: visual injury, 0 to 100 scale (0 no effect, 100 complete control); for Plant response rating (0 to 100 scale), Corn: 0 is no effect, 100 is complete control.

With `Cc1c(N2CCCC(OC3CCC3)C2=O)cc(N(COC(=O)C(C)(C)C)S(=O)(=O)C(F)(F)F)c(C)c1F` (centres unmarked) [Compound 39], the “Goosegrass plant response rating” value in assay [1] (31 g ai/ha Postemergence) was found to be 0. Also, the “Plant response rating (0 to 100 scale), Goosegrass” value in assay [1] (125 g ai/ha Postemergence) is 30. Besides, the results for the “Plant response rating (0 to 100 scale), Soybean” value (shortened to “Plant response rating … Soybean”) in the assay with soybean (Glycine max) (31 g ai/ha Preemergence) and in the assay on soybean (Glycine max) (125 g ai/ha Preemergence) were 0 and 60, respectively. Further, in assay [2], the “Plant response rating, Ducksalad” value stood at 55. For the same compound, the “Horseweed plant response rating” value in assay [3] (31 g ai/ha Postemergence) came to 70. Also, the “Plant response rating (0 to 100 scale), Horseweed” value in assay [3] (125 g ai/ha Postemergence) is recorded as 90. Also, the figures for the “Plant response rating (0 to 100 scale), Pigweed, Palmer” value (“Plant response rating … Palmer” below) in [4] (31 g ai/ha Preemergence) and in assay [4] (125 g ai/ha Preemergence) were 0 and 40, respectively. Moreover, the “Plant response rating (0 to 100 scale), Oat, Wild” value (from here on “Plant response rating … Wild”) in assay [5] (31 g ai/ha Preemergence) and in assay [5] (125 g ai/ha Preemergence) was 0 each time. Further, the “Plant response rating (0 to 100 scale), Blackgrass” value (“Plant response rating … Blackgrass” for short) worked out at 0 in [6] (31 g ai/ha Preemergence) and 20 in assay [6] (125 g ai/ha Preemergence). The “Plant response rating (0 to 100 scale), Ragweed” value (from here on “Plant response rating … Ragweed”) in [7] (31 g ai/ha Preemergence) amounted to 0; in [7] (125 g ai/ha Preemergence) it was 80. Moreover, the “Corn plant response rating” value in the assay with corn (Zea mays) (31 g ai/ha Postemergence) is on record as 0. In the assay with corn (Zea mays) (125 g ai/ha Postemergence), the “Plant response rating (0 to 100 scale), Corn” value stood at 10.

For the compound `Cc1c(NS(=O)(=O)C(F)(F)F)cc(N2CCC(OCC3CC3)C2=O)c(C)c1F` (centres unmarked) [Compound 63], the “Goosegrass plant response rating” value in assay [1] (31 g ai/ha Postemergence) was found to be 0; in assay [1] (125 g ai/ha Postemergence), 90. In addition, the “Plant response rating … Soybean” value with soybean (Glycine max) (31 g ai/ha Preemergence) is reported as 60; with soybean (Glycine max) (125 g ai/ha Preemergence), 100. For the same compound, the “Plant response rating, Ducksalad” value in [2] amounted to 95. Further, the “Horseweed plant response rating” value in [3] (31 g ai/ha Postemergence) and in assay [3] (125 g ai/ha Postemergence) was 90 each time. In addition, the “Plant response rating … Palmer” value in assay [4] (31 g ai/ha Preemergence) and in assay [4] (125 g ai/ha Preemergence) was 100 throughout. The “Plant response rating … Wild” value in [5] (31 g ai/ha Preemergence) came out at 70; in assay [5] (125 g ai/ha Preemergence), 100. Moreover, the “Plant response rating … Blackgrass” value came out at 70 in [6] (31 g ai/ha Preemergence) and 90 in assay [6] (125 g ai/ha Preemergence). Moreover, the “Plant response rating … Ragweed” value in [7] (31 g ai/ha Preemergence) is listed as 90; in [7] (125 g ai/ha Preemergence), 100. Moreover, the “Corn plant response rating” value amounted to 0 in the assay with corn (Zea mays) (31 g ai/ha Postemergence) and 50 in the assay with corn (Zea mays) (125 g ai/ha Postemergence).

Consider `Cc1c(NS(=O)(=O)C(F)(F)F)cc(N2CCCC(OC3CCC3)C2=O)c(C)c1F` (centres unmarked) [Compound 36], for which the “Goosegrass plant response rating” value in assay [1] (31 g ai/ha Postemergence) came out at 30. Further, the “Plant response rating (0 to 100 scale), Goosegrass” value in assay [1] (125 g ai/ha Postemergence) is on record as 90. Besides, the “Plant response rating … Soybean” value in the assay with soybean (Glycine max) (31 g ai/ha Preemergence) and with soybean (Glycine max) (125 g ai/ha Preemergence) was 90 in each case. For the same compound, the “Plant response rating, Ducksalad” value in [2] is given as 65. Besides, in assay [3] (31 g ai/ha Postemergence), the “Horseweed plant response rating” value was found to be 40. Further, in assay [3] (125 g ai/ha Postemergence), the “Plant response rating (0 to 100 scale), Horseweed” value came to 70. Moreover, the “Plant response rating … Palmer” value is 90 in assay [4] (31 g ai/ha Preemergence) and 100 in [4] (125 g ai/ha Preemergence). Also, the “Plant response rating … Wild” value was found to be 30 in assay [5] (31 g ai/ha Preemergence) and 90 in assay [5] (125 g ai/ha Preemergence). The “Plant response rating … Blackgrass” value in assay [6] (31 g ai/ha Preemergence) came to 80; in assay [6] (125 g ai/ha Preemergence), 100. In addition, the “Plant response rating … Ragweed” value in [7] (31 g ai/ha Preemergence) came out at 70; in assay [7] (125 g ai/ha Preemergence) it was 90. Besides, the “Corn plant response rating” value with corn (Zea mays) (31 g ai/ha Postemergence) came out at 0. In addition, the “Plant response rating (0 to 100 scale), Corn” value with corn (Zea mays) (125 g ai/ha Postemergence) stood at 20.

For the compound `CCOC(=O)N(c1cc(N2CCC(OC3CC3)C2=O)c(C)cc1C)S(=O)(=O)C(F)(F)F` (centres unmarked) [Compound 19], the “Goosegrass plant response rating” value in assay [1] (31 g ai/ha Postemergence) was 0. Further, in assay [1] (125 g ai/ha Postemergence), the “Plant response rating (0 to 100 scale), Goosegrass” value is 90. Further, the figures for the “Plant response rating … Soybean” value in the assay with soybean (Glycine max) (31 g ai/ha Preemergence) and with soybean (Glycine max) (125 g ai/ha Preemergence) were 30 and 90, respectively. Moreover, the “Plant response rating, Ducksalad” value in assay [2] is given as 0. Moreover, in [3] (31 g ai/ha Postemergence), the “Horseweed plant response rating” value is given as 10. Also, the “Plant response rating (0 to 100 scale), Horseweed” value in assay [3] (125 g ai/ha Postemergence) is given as 30. The “Plant response rating … Palmer” value came out at 20 in [4] (31 g ai/ha Preemergence) and 60 in assay [4] (125 g ai/ha Preemergence). For the same compound, the entries for the “Plant response rating … Wild” value in [5] (31 g ai/ha Preemergence) and in [5] (125 g ai/ha Preemergence) were 0 and 40, respectively. For the same compound, the “Plant response rating … Blackgrass” value in assay [6] (31 g ai/ha Preemergence) was found to be 0; in assay [6] (125 g ai/ha Preemergence), 40. In addition, the figures for the “Plant response rating … Ragweed” value in [7] (31 g ai/ha Preemergence) and in [7] (125 g ai/ha Preemergence) were 0 and 10, respectively. In the assay with corn (Zea mays) (31 g ai/ha Postemergence), the “Corn plant response rating” value was found to be 0. In the assay on corn (Zea mays) (125 g ai/ha Postemergence), the “Plant response rating (0 to 100 scale), Corn” value came out at 20.
